# From ChEMBL document CHEMBL5576054, “Lead compound profiling for small molecule inhibitors of the REV1-CT/RIR Translesion synthesis Protein-Protein interaction” (Bioorg Med Chem, 2024)
# The source made the active and inactive calls. The rule behind the calls is not given here.
# What was measured:
# [1] = Disruption of C-terminal REV-1/FAM-tagged Pol kappa RIR (unknown origin) interaction incubated for 1 hr by FP assay; set-up: species or system Homo sapiens
# [2] = MRT (infinity) in CD-1 mouse at 1 mg/kg, iv by LC-MS/MS analysis; assay type: ADME, organism-based; details: in vivo
# [3] = Metabolic stability in human liver microsomes assessed as intrinsic clearance at 1 uM incubated upto 60 mins by LC-MS/MS analysis; assay type: ADME, Microsome; details: 1 h
# [4] = AUClast in CD-1 mouse at 1 mg/kg, iv by LC-MS/MS analysis; assay type: ADME, organism-based; details: in vivo
# [5] = AUClast in CD-1 mouse at 100 mg/kg, ip by LC-MS/MS analysis; assay type: ADME, organism-based; details: in vivo
# [6] = Dose normalized AUClast in CD-1 mouse at 1 mg/kg, iv by LC-MS/MS analysis; assay type: ADME, organism-based; details: in vivo
# DNA repair protein REV1 = biological target: T1, DNA repair protein REV1 (Homo sapiens, UniProt Q9UBZ9); assay: Binding affinity to C-terminal human REV-1 assessed as dissociation constant incubated for 30 mins by MST assay
# T1 sequence (Q9UBZ9 whole entry): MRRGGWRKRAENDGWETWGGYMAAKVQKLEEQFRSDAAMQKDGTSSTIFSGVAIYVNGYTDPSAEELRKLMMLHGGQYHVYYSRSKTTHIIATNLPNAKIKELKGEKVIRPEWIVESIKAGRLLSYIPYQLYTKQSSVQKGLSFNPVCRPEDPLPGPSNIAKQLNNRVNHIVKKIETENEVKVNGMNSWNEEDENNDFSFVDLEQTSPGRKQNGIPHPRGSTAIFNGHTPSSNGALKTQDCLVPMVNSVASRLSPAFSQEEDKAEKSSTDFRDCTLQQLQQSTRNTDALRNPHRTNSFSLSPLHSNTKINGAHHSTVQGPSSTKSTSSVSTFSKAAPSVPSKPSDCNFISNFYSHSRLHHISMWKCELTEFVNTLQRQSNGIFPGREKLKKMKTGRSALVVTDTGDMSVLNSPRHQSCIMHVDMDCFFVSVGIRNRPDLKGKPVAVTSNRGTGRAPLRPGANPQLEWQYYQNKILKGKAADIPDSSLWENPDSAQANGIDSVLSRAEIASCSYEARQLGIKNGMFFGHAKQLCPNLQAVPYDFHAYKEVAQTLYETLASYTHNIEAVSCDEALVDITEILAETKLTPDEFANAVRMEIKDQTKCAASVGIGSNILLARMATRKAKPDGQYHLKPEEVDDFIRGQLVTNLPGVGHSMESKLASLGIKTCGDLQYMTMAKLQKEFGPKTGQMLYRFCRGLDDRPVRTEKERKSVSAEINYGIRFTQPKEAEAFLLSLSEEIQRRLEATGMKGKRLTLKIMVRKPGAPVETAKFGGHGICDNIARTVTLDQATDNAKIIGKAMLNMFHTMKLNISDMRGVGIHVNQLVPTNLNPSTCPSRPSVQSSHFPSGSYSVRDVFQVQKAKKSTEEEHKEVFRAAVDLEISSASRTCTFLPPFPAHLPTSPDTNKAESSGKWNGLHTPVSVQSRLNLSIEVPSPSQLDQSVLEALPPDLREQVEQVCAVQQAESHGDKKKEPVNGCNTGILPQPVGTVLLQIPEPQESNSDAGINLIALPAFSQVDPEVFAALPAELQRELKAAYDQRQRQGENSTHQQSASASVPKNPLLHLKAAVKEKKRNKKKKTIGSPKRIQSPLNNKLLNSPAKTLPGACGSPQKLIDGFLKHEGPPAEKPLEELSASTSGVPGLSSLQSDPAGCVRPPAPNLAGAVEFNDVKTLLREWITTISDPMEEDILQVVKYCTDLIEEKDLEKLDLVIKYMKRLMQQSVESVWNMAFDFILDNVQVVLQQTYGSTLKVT
# [7] = Area under curve extrapolated from the last time point to infinity in CD-1 mouse at 1 mg/kg, iv by LC-MS/MS analysis; assay type: ADME, organism-based; details: in vivo
# [8] = AUC (infinity) in CD-1 mouse at 100 mg/kg, ip by LC-MS/MS analysis; assay type: ADME, organism-based; details: in vivo
# [9] = Area under curve extrapolated from the last time point to infinity in CD-1 mouse at 100 mg/kg, ip by LC-MS/MS analysis; assay type: ADME, organism-based; details: in vivo
# [10] = C0 in CD-1 mouse at 1 mg/kg, iv by LC-MS/MS analysis; assay type: ADME, organism-based; details: in vivo
# [11] = Half life in CD-1 mouse at 100 mg/kg, ip by LC-MS/MS analysis; assay type: ADME, organism-based; details: in vivo
# [12] = Tmax in CD-1 mouse at 100 mg/kg, ip by LC-MS/MS analysis; assay type: ADME, organism-based; details: in vivo
# [13] = MRT (infinity) in CD-1 mouse at 100 mg/kg, ip by LC-MS/MS analysis; assay type: ADME, organism-based; details: in vivo
# [14] = Toxicity in BALB/c nude mouse assessed as animal death at 200 mg/kg, po qd measured for 3 days; assay type: organism-based; details: in vivo, 72 h, time 3 day
# [15] = AUC (infinity) in CD-1 mouse at 1 mg/kg, iv by LC-MS/MS analysis; assay type: ADME, organism-based; details: in vivo
# [16] = Toxicity in BALB/c nude mouse assessed as effect on body weight at 30 to 100 mg/kg, po qd for 7 days; assay type: organism-based; details: in vivo, 168 h, dose 30-100 mg/kg, time 7 day
# [17] = Toxicity in BALB/c nude mouse assessed as general impairment at 30 to 100 mg/kg, po qd for 7 days; assay type: organism-based; details: in vivo, 168 h, dose 30-100 mg/kg, time 7 day
# [18] = Toxicity in BALB/c nude mouse administered orally once daily for 7 days; details: in vivo, route po, time 7 day
# [19] = Toxicity in BALB/c nude mouse assessed as decrease in animal weight at 200 mg/kg, po qd measured for 2 days; assay type: organism-based; details: in vivo, 48 h, time 2 day
# [20] = Cmax in CD-1 mouse at 100 mg/kg, ip by LC-MS/MS analysis; assay type: ADME, organism-based; details: in vivo
# [21] = Half life in CD-1 mouse at 1 mg/kg, iv by LC-MS/MS analysis; assay type: ADME, organism-based; details: in vivo
# [22] = Dose normalized AUClast in CD-1 mouse at 100 mg/kg, ip by LC-MS/MS analysis; assay type: ADME, organism-based; details: in vivo
# [23] = Toxicity in BALB/c nude mouse assessed as visual signs of toxicity at 30 to 100 mg/kg, po qd for 7 days; assay type: organism-based; details: in vivo, 168 h, dose 30-100 mg/kg, time 7 day
# [24] = Volume of distribution at steady state in CD-1 mouse at 1 mg/kg, iv by LC-MS/MS analysis; assay type: ADME, organism-based; details: in vivo
# [25] = Oral bioavailability in CD-1 mouse at 100 mg/kg by LC-MS/MS analysis; assay type: ADME, organism-based; details: in vivo
# [26] = Metabolic stability in human liver microsomes assessed as half life at 1 uM incubated upto 60 mins by LC-MS/MS analysis; assay type: ADME, Microsome; details: 1 h
# [27] = Solubility of compound in PBS at pH 4; assay type: physicochemical; details: buffer
# [28] = Solubility of compound in PBS at pH 7.4; assay type: physicochemical
# [29] = biological target: T2, DNA repair protein REV1 (Homo sapiens) (UniProt Q9UBZ9); assay: Binding affinity to C-terminal human REV-1 incubated for 30 mins by MST assay
# T2 sequence (whole entry): T1 sequence (Q9UBZ9 whole entry)
# A549 = assay: Inhibition of cologenic survival in human A549 cells incubated for 8 to 10 days by crystal violet staining based analysis; assay type: functional, cell-based; details: time 8-10 day
# MEF [30] = assay: Synergistic inhibition of cologenic survival in mouse MEF cells at 10 uM incubated for 24 hrs followed by fresh media replacement without compound measured after 4 days in presence of cisplatin by crystal violet staining based analysis; assay type: functional, cell-based
# SW1271 [31] = assay: Synergistic inhibition of cell viability in human SW1271 cells at 20 uM incubated for 5 days in presence of Olaparib/Temozolomide by Cell Titer Glo assay; assay type: functional, cell-based; details: time 5.0 day
# MEF [32] = assay: Inhibition of cologenic survival in mouse MEF cells at 10 uM incubated for 24 hrs followed by fresh media replacement without compound measured after 4 days by crystal violet staining based analysis; assay type: functional, cell-based
# [33] = Clearance in CD-1 mouse at 1 mg/kg, iv by LC-MS/MS analysis; assay type: ADME, organism-based; details: in vivo
# SW1271 [34] = assay: Synergistic inhibition of cell viability in human SW1271 cells with Rev1-/- at 20 uM incubated for 5 days in presence of Olaparib/Temozolomide by Cell Titer Glo assay; assay type: functional, cell-based; details: time 5.0 day
# MEF [35] = assay: Synergistic inhibition of cologenic survival in mouse MEF cells with Rev1-/- at 10 uM incubated for 24 hrs followed by fresh media replacement without compound measured after 4 days in presence of cisplatin by crystal violet staining based analysis; assay type: functional, cell-based
compound,measurement,setting,value
C=CCOc1ccccc1C(=O)Nc1sc(CCC)cc1C(=O)OCC,IC50,[1],14.9 µM
CCCc1cc(C(=O)OC)c(NC(=O)C2CCN(C(C)=O)CC2)s1,MRT,"[2]; mouse, iv, 1 mg/kg",13.5 min
same,IC50,[1],4.1 µM
same,intrinsic clearance (CLint),[3],18.8 µL/min/mg
same,AUC(0-t),[4],37.3 ng·h/mL
same,AUC(0-t),[5],2280 ng·h/mL
same,AUClast/dose,[6],37.3 ng·h/mL
same,Kd,DNA repair protein REV1,6.7 µM
same,%AUCextra,[7],2.39%
same,AUC(0-inf),[8],2320 ng·h/mL
same,%AUCextra,[9],1.74%
same,C0,"[10]; mouse, iv, 1 mg/kg",200 ng/mL
same,half-life,[11],340 min
same,Tmax,[12],15 min
same,MRT inf,[13],169 min
same,Activity,[14],Toxic
same,AUC(0-inf),[15],38.2 ng·h/mL
same,Activity,[16],Non-Toxic
same,Activity,[17],Non-Toxic
same,MTD at 168 h,[18],≤ 100 mg/kg
same,Activity,[19],Toxic
same,Cmax,[20],2780 ng/mL
same,t1/2,"[21]; mouse, iv, 1 mg/kg",16.9 min
same,AUClast/dose,[22],22.8 ng·h/mL
same,Activity,[23],Non-Toxic
same,Vdss,"[24]; mouse, iv, 1 mg/kg",5.96 L/kg
same,F,[25],60.8%
Cc1cccn2c(=O)c3cc(C(=O)N[C@@H](C)c4ccccc4)c(N)[n+](CCOCCO)c3nc12,IC50,[1],1.6 µM
same,t1/2,[26],97.6 min
same,intrinsic clearance (CLint),[3],14.2 µL/min/mg
same,solubility,[27],302 µM
same,solubility,[28],51.7 µM
same,Activity,[29],inactive
Nc1ccc(/N=N/c2ccc3ccccc3c2)c(N)n1,inhibition,A549,Active
Cc1ccc(C(=O)N2CCN(c3ccccc3)CC2)cc1S(=O)(=O)N1CCOCC1,t1/2,[26],6.6 min
same,intrinsic clearance (CLint),[3],210 µL/min/mg
same,solubility,[27],13.9 µM
same,solubility,[28],14.1 µM
CC(=O)N1CCC(C(=O)NCc2cccs2)CC1,IC50,[1],16.4 µM
CCCc1cc(C(=O)OCC)c(NC(=O)C2CCN(C(=O)OC(C)(C)C)CC2)s1,IC50,[1],2.3 µM
CCCc1cc(C(=O)OCC)c(NC(=O)c2cc(O)cc(O)c2)s1,IC50,[1],> 100 µM
Nc1ccc(/N=N/c2cccc(F)c2F)c(N)n1,MRT inf,"[2]; CD-1, mouse",15.8 min
same,IC50,[1],0.4 µM
same,inhibition,MEF [30],Active
same,t1/2,[26],< 2.3 min
same,intrinsic clearance (CLint),[3],> 300 µL/min/mg
same,AUC(0-t),[4],97 ng·h/mL
same,solubility,[27],4.5 µM
same,inhibition,SW1271 [31],Active
same,AUC(0-t),[5],25300 ng·h/mL
same,AUClast/dose,[6],96.7 ng·h/mL
same,solubility,[28],8.5 µM
same,Kd,DNA repair protein REV1,21 µM
same,inhibition,MEF [32],inactive
same,%AUCextra,[7],0.77%
same,clearance,[33],177 mL/min/kg
same,AUC(0-inf),[8],25500 ng·h/mL
same,%AUCextra,[9],0.58%
same,C0,"[10]; CD-1, mouse, read-out: C0",412 ng/mL
same,half-life,[11],269 min
same,inhibition,A549,Active
same,Tmax,[12],25 min
same,MRT inf,[13],124 min
same,Activity,[14],Toxic
same,AUC(0-inf),[15],97 ng·h/mL
same,Activity,[16],Non-Toxic
same,inhibition,SW1271 [34],inactive
same,Activity,[17],Non-Toxic
same,inhibition,MEF [35],inactive
same,MTD at 168 h,[18],≤ 100 mg/kg
same,Activity,[19],Toxic
same,Cmax,[20],12500 ng/mL
same,half-life,"[21]; CD-1, mouse",20.3 min
same,AUClast/dose,[22],253 ng·h/mL
same,Activity,[23],Non-Toxic
same,Vd,"[24]; CD-1, mouse, read-out: Vdss",2.81 L/kg
COC(=O)c1ccsc1NC(=O)C1CCN(C(C)=O)CC1,IC50,[1],> 100 µM
C=CCOc1ccc(C(=O)Nc2sc(CCC)cc2C(=O)OCC)cc1,IC50,[1],25.3 µM
CCCc1cc(C(=O)OCC)c(NC(=O)c2cccc(O)c2)s1,IC50,[1],2.5 µM
CCCc1cc(C(=O)OC)c(NC(=O)c2ccccc2)s1,IC50,[1],4.7 µM
CCCc1cc(C(=O)OCC)c(NC(=O)C2CCCN(C(=O)OC(C)(C)C)C2)s1 (configuration not stated),IC50,[1],2.5 µM
Nc1ccc(/N=N/c2ccc3ccccc3c2)c(N)c1,inhibition,A549,Active
